Results reported in patent EP0163537A1, “1-Propanone derivatives and pharmaceutical compositions containing same” (priority 1984, dated 1985).
Where a name gives a salt, the structure may show the parent alone. Read-outs that look alike come from different tables or passages of the source.

What was measured:
Assay type in all cases: in vivo
[1] = tested on: Male mice of ddY strain; test: Test 1 Anti-nicotine activity (inhibition of nicotine-induced convulsive death); conditions: 200 mg/kg po, nicotine 2 mg/kg iv after 1 h, observed 1 h; for responders at 200 mg/kg: Mus musculus
Experimental: Male mice of ddY strain, weighing 28 to 33 g, were used in groups of eight or twelve. The test compounds were dissolved in distilled water and administered orally in a dose of 200 mg/kg. After an hour, nicotine was intravenously administered in a dose of 2 mg/kg.

[2] = tested on: Male mice of ddY strain; test: Test 2 Anti-tremorine activity (inhibition of tremorine-induced tremor); conditions: for responders at 50 mg/kg: Mus musculus, po, read-out: Inhibition of tremor (%)
Experimental: Male mice of ddY strain, weighing 28 to 32 g, were used in groups of eight or ten. The test compounds were dissolved in distilled water and administered orally in a dose of 50 mg/kg. After 30 minutes, tremorine dihydrochloride was subcutaneously administered in a dose of 20 mg/kg. Then, the occurrence of tremor was observed after the lapse of 30 and 60 minutes.

[3] = tested on: Male mice of ddY strain; test: Test 3 Muscle relaxant activity (traction test, method of Courvoisier et al.); conditions: 15 minutes after administration, groups of ten
Experimental: Male mice of ddY strain, weighing 30 to 37 g, were used in groups of ten. The test compounds were dissolved in physiological saline and administered intraperitoneally in a dose of 50 or 75 mg/kg. […] This method involves a traction test in which the animal is hung by its forelimbs on a horizontal metal rod (2 mm in diameter) placed 20 cm above the floor and examined as to whether it can put its hindlimb on the rod or not.
Specifically, 15 minutes after administration of a test compound, the mouse was hung on the rod by its forelimbs. […] It had been confirmed in preliminary tests that, under normal conditions, all the mice could put their hindlimb on the rod within 5 seconds.

[4] = Test 5 Acute toxicity (LD50, method of Behrens and Kärbar); conditions: mouse, in vivo, po, mice, observed for 7 days
Experimental: Male mice of ddY strain, weighing 25 to 30 g, were used in groups of five. The test compounds were dissolved in distilled water and administered orally in various doses. […] Then, the LDso was calculated according to the method of Behrens and Kärbar.

[5] = po, 1 h, Table-2a, 8 animals used
[6] = 0.5 h, Table-3a, 50 mg/kg po, After 30 min. from tremorine 20 mg/kg sc, 8 animals used
[7] = 1 h, Table-3a, 50 mg/kg po, After 60 min. from tremorine 20 mg/kg sc, 8 animals used
[8] = Table-3d, 50 mg/kg po, After 30 min., 10 animals used
[9] = Table-3d, 50 mg/kg po, After 60 min., 10 animals used
[10] = po, 1 h, Table-2c, 12 animals used
[11] = 0.5 h, Table-3d, 50 mg/kg po, After 30 min., 10 animals used
[12] = 1 h, Table-3d, 50 mg/kg po, After 60 min., 10 animals used
[13] = 0.5 h, Table-3b, 50 mg/kg po, After 30 min., 10 animals used
[14] = 1 h, Table-3b, 50 mg/kg po, After 60 min., 10 animals used
[15] = Table-3b, 50 mg/kg po, After 30 min., 10 animals used
[16] = Table-3b, 50 mg/kg po, After 60 min., 10 animals used
[17] = po, 1 h, Table-2b, 12 animals used
[18] = Table-3a, 50 mg/kg po, After 30 min. from tremorine 20 mg/kg sc, 8 animals used
[19] = Table-3a, 50 mg/kg po, After 60 min. from tremorine 20 mg/kg sc, 8 animals used

CCCC(CN1CCCC1)C(=O)c1ccc2c(c1)CCO2.Cl (stereo not shown) [Example 98, 1-(2,3-Dihydro-5-benzofuranyl)-2-n-propyl-3-(1-pyrrolidinyl)-1-propanone hydrochloride]
responders at 200 mg/kg ([1]; Table-2c, 12 animals used): 0% | Number of surviving animals ([1]; Table-2c, 12 animals used): 0 | responders at 50 mg/kg ([2]; 0.5 h): 100% | responders at 50 mg/kg ([2]; 1 h): 90%

CC(CN1CCCCC1)C(=O)c1ccc(C2CCCC2)cc1.Cl (stereo not shown) [Example 41, 1-(4-Cyclopentylphenyl)-2-methyl-3-piperidino-1-propanone hydrochloride]
responders at 200 mg/kg [1, 5]: 37.5% | Number of surviving animals ([1]; Table-2a, 8 animals used): 3 | responders at 50 mg/kg [2, 6]: 75% | responders at 50 mg/kg [2, 7]: 12.5%

CC(CN1CCCC1)C(=O)c1ccc2c(c1)OCO2 (stereo not shown) [Example 60, 2-Methyl-1-(3,4-methylenedioxyphenyl)-3-(1-pyrrolidi-nyl)-1-propanone hydrochloride]
responders at 200 mg/kg ([1]; Table-2b, 12 animals used): 58.3% | Number of surviving animals ([1]; Table-2b, 12 animals used): 7

1-(2,3-Dihydro-5-benzofuranyl)-2-ethyl-3-piperidino-1-propanone hydrochloride [Example 89]
Inhibition of death (%) ([1]; Table-2c, 12 animals used): 66.7% | Number of surviving animals ([1]; Table-2c, 12 animals used): 8 | Inhibition of tremor (%) [2, 8]: 100% | Number of animals exhibiting no tremor [2, 8]: 10 | Inhibition of tremor (%) [2, 9]: 100% | Number of animals exhibiting no tremor [2, 9]: 10 | Muscle relaxation rate (%) ([3]; Table-4d, 75 mg/kg ip): 50% | Number of animals exhibiting muscle relaxation ([3]; Table-4d, 75 mg/kg ip): 5

CCCC(CN1CCCCC1)C(=O)c1ccc2c(c1)CCO2.Cl (stereo not shown) [Example 99, 1-(2,3-Dihydro-5-benzofuranyl)-2-n-propyl-3-piperidino-1-propanone hydrochloride]
responders at 200 mg/kg [1, 10]: 25% | Number of surviving animals ([1]; Table-2c, 12 animals used): 3 | responders at 50 mg/kg [2, 11]: 100% | responders at 50 mg/kg [2, 12]: 90% | Number of animals exhibiting muscle relaxation ([3]; Table-4d, 75 mg/kg ip): 2

Cl.O=C(c1ccc(C2CC2)cc1)C(CN1CCCCC1)C1CCCC1 (stereo not shown) [Example 37, 2-Cyclopentyl-1-(4-cyclopropylphenyl)-3-piperidino-1-propanone hydrochloride]
responders at 50 mg/kg [2, 13]: 80% | responders at 50 mg/kg [2, 14]: 80% | Number of animals exhibiting no tremor [2, 15]: 8 | Number of animals exhibiting no tremor [2, 16]: 8

CC(CN1CCCCCC1)C(=O)c1ccc(C2CC2)cc1.Cl (stereo not shown) [Example 9, 1-(4-Cyclopropylphenyl)-2-methyl-3-(hexahydro-1H-azepin-1-yl)-1-propanone hydrochloride]
responders at 200 mg/kg [1, 5]: 75% | Number of surviving animals ([1]; Table-2a, 8 animals used): 6 | responders at 50 mg/kg [2, 6]: 100% | responders at 50 mg/kg [2, 7]: 87.5% | Number of animals exhibiting muscle relaxation ([3]; Table-4a, 50 mg/kg ip): 7 | LD50 at 168 h ([4]; Table-5a): 655 mg/kg

CCc1ccc(C(=O)C(C)CN2CCCCC2)cc1 (stereo not shown) [Eperisone HCl, Eperisone, reference compound]
responders at 200 mg/kg [1, 5]: 50% | responders at 200 mg/kg [1, 17]: 50% | responders at 200 mg/kg [1, 10]: 50% | responders at 50 mg/kg [2, 6]: 87.5% | responders at 50 mg/kg [2, 13]: 80% | responders at 50 mg/kg [2, 11]: 80% | responders at 50 mg/kg [2, 7]: 0% | responders at 50 mg/kg [2, 14]: 10% | responders at 50 mg/kg [2, 12]: 20% | Number of animals exhibiting muscle relaxation ([3]; Table-4a, 50 mg/kg ip): 2 | Number of animals exhibiting muscle relaxation ([3]; Table-4d, 75 mg/kg ip): 2 | LD50 at 168 h ([4]; Table-5a): 595 mg/kg | LD50 at 168 h ([4]; Table-5b): 475 mg/kg | LD50 at 168 h ([4]; Table-5c): 565 mg/kg

Cc1ccc(C(=O)C(C)CN2CCCCC2)cc1 (stereo not shown) [Tolperisone HCl, 2-methyl-1-(4-methylphenyl)-3-(1-piperidinyl)-1-propanone, reference compound]
responders at 200 mg/kg [1, 5]: 0% | responders at 200 mg/kg [1, 17]: 0% | responders at 200 mg/kg [1, 10]: 8.3% | responders at 50 mg/kg [2, 6]: 0% | responders at 50 mg/kg [2, 13]: 0% | responders at 50 mg/kg [2, 11]: 0% | responders at 50 mg/kg [2, 7]: 0% | responders at 50 mg/kg [2, 14]: 0% | responders at 50 mg/kg [2, 12]: 0% | Number of animals exhibiting no tremor [2, 18]: 0 | Number of animals exhibiting no tremor [2, 19]: 0 | Number of animals exhibiting no tremor [2, 15]: 0 | Number of animals exhibiting no tremor [2, 16]: 0 | Number of animals exhibiting no tremor [2, 8]: 0 | Number of animals exhibiting no tremor [2, 9]: 0 | Number of animals exhibiting muscle relaxation ([3]; Table-4a, 50 mg/kg ip): 1 | Number of animals exhibiting muscle relaxation ([3]; Table-4d, 75 mg/kg ip): 1 | LD50 at 168 h ([4]; Table-5a): 625 mg/kg | LD50 at 168 h ([4]; Table-5b): 655 mg/kg | LD50 at 168 h ([4]; Table-5c): 595 mg/kg

CC(CN1CCCCC1)C(=O)c1ccc(C2CCCCC2)cc1.Cl (stereo not shown) [Example 48, 1-(4-Cyclohexylphenyl)-2-methyl-3-piperidino-1-propanone hydrochloride]
responders at 200 mg/kg [1, 5]: 62.5% | Number of surviving animals ([1]; Table-2a, 8 animals used): 5 | responders at 50 mg/kg [2, 6]: 100% | responders at 50 mg/kg [2, 7]: 37.5%

CC(CN1CCCC1)C(=O)c1ccc(C2CC2)cc1.Cl (stereo not shown) [Example 8, 1-(4-Cyclopropylphenyl)-2-methyl-3-(1-pyrrolidinyl)-1-propanone hydrochloride]
responders at 200 mg/kg [1, 5]: 62.5% | Number of surviving animals ([1]; Table-2a, 8 animals used): 5 | responders at 50 mg/kg [2, 6]: 100% | responders at 50 mg/kg [2, 7]: 87.5% | Number of animals exhibiting muscle relaxation ([3]; Table-4a, 50 mg/kg ip): 7 | LD50 at 168 h ([4]; Table-5a): 505 mg/kg

CC(C)C(CN1CCCCC1)C(=O)c1ccc(C2CC2)cc1.Cl (stereo not shown) [Example 5, 1-(4-Cyclopropylphenyl)-2-isopropyl-3-piperidino-1-propanone hydrochloride]
responders at 50 mg/kg [2, 13]: 100% | responders at 50 mg/kg [2, 14]: 100% | Number of animals exhibiting no tremor [2, 15]: 10 | Number of animals exhibiting no tremor [2, 16]: 10

CCC(CN1CCCCCC1)C(=O)c1ccc2c(c1)CCO2.Cl (stereo not shown) [Example 96, 1-(2,3-Dihydro-5-benzofuranyl)-2-ethyl-3-(hexa-hydro-1H-azepin-1-yl)-1-propanone hydrochloride]
responders at 200 mg/kg [1, 10]: 41.7% | Number of surviving animals ([1]; Table-2c, 12 animals used): 5 | responders at 50 mg/kg [2, 11]: 100% | responders at 50 mg/kg [2, 12]: 100% | Number of animals exhibiting no tremor [2, 8]: 10 | Number of animals exhibiting no tremor [2, 9]: 10

CC(CN1CCCCCC1)C(=O)c1ccc2c(c1)OCO2.Cl (stereo not shown) [Example 61, 2-Methyl-1-(3,4-methylenedioxyphenyl)-3-(hexahydro-1H-azepin-1-yl)-1-propanone hydrochloride]
responders at 200 mg/kg ([1]; Table-2b, 12 animals used): 58.3% | Number of surviving animals ([1]; Table-2b, 12 animals used): 7

CCC(CN1CCCCC1)C(=O)c1ccc(C2CC2)cc1.Cl (stereo not shown) [Example 11, 1-(4-Cyclopropylphenyl)-2-ethyl-3-piperidino-1-propanone hydrochloride]
responders at 200 mg/kg [1, 5]: 37.5% | Number of surviving animals ([1]; Table-2a, 8 animals used): 3 | responders at 50 mg/kg [2, 6]: 100% | responders at 50 mg/kg [2, 7]: 100% | Number of animals exhibiting no tremor [2, 18]: 8 | Number of animals exhibiting no tremor [2, 19]: 8

CCC(CN1CCCC1)C(=O)c1ccc2c(c1)OCO2 (stereo not shown) [Example 56, 2-Ethyl-1-(3,4-methylenedioxyphenyl)-3-(1-pyrrolidi-nyl)-1-propanone hydrochloride]
responders at 200 mg/kg ([1]; Table-2b, 12 animals used): 41.7% | Number of surviving animals ([1]; Table-2b, 12 animals used): 5

CCC(CN1CCCC1)C(=O)c1ccc2c(c1)CCO2.Cl (stereo not shown) [Example 95, 1-(2,3-Dihydro-5-benzofuranyl)-2-ethyl-3-(1-pyrrolidinyl)-1-propanone hydrochloride]
responders at 200 mg/kg ([1]; Table-2c, 12 animals used): 16.7% | Number of surviving animals ([1]; Table-2c, 12 animals used): 2 | responders at 50 mg/kg ([2]; 0.5 h): 100% | responders at 50 mg/kg ([2]; 1 h): 100% | Number of animals exhibiting no tremor [2, 8]: 10 | Number of animals exhibiting no tremor [2, 9]: 10

CCCC(CN1CCCCCC1)C(=O)c1ccc2c(c1)CCO2.Cl (stereo not shown) [Example 100, 1-(2,3-Dihydro-5-benzofuranyl)-2-n-propyl-3-(hexahydro-1H-azepin-1-yl)-1-propanone hydrochloride]
responders at 200 mg/kg ([1]; Table-2c, 12 animals used): 0% | Number of surviving animals ([1]; Table-2c, 12 animals used): 0 | responders at 50 mg/kg ([2]; 0.5 h): 100% | responders at 50 mg/kg ([2]; 1 h): 100% | Number of animals exhibiting no tremor [2, 8]: 10 | Number of animals exhibiting no tremor [2, 9]: 10

CCC(CN1CCCC1)C(=O)c1ccc(C2CC2)cc1.Cl (stereo not shown) [Example 10, 1-(4-Cyclopropylphenyl)-2-ethyl-3-(1-pyrrolidinyl)-1-propanone hydrochloride]
responders at 200 mg/kg [1, 5]: 0% | Number of surviving animals ([1]; Table-2a, 8 animals used): 0 | responders at 50 mg/kg [2, 6]: 100% | responders at 50 mg/kg [2, 7]: 100% | Number of animals exhibiting no tremor [2, 18]: 8 | Number of animals exhibiting no tremor [2, 19]: 8
